# From PubChem BioAssay (NCI)
# “And” between values parts separate entries of the source, which are not always exact repeats. Equal entries are not always repeated.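 Five compound concentrations were applied to cells in 96-well plates for 48 hours; endpoints were derived by simple linear interpolation of the resulting dose-response curve. GI50 marks 50% less growth. TGI: total growth inhibition.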
# Columns and labels:
# Test in all cases: NCI anticancer screen, dose series, 48 h
# HCC-2998 colon = tested on: HCC-2998 colon
# HT29 colon = tested on: HT29 colon
# IGROV1 ovarian = tested on: IGROV1 ovarian
# LOX IMVI melanoma = tested on: LOX IMVI melanoma
# M14 melanoma = tested on: M14 melanoma
# MALME-3M melanoma = tested on: MALME-3M melanoma
# MDA-MB-435 = tested on: MDA-MB-435
# OVCAR-5 ovarian = tested on: OVCAR-5 ovarian
# SNB-19 CNS = tested on: SNB-19 CNS
# TK-10 renal = tested on: TK-10 renal
Compound,GI50 (HCC-2998 colon),TGI (HCC-2998 colon),GI50 (HT29 colon),TGI (HT29 colon),GI50 (IGROV1 ovarian),TGI (IGROV1 ovarian),GI50 (LOX IMVI melanoma),TGI (LOX IMVI melanoma),GI50 (M14 melanoma),TGI (M14 melanoma),GI50 (MALME-3M melanoma),TGI (MALME-3M melanoma),GI50 (MDA-MB-435),TGI (MDA-MB-435),GI50 (OVCAR-5 ovarian),TGI (OVCAR-5 ovarian),GI50 (SNB-19 CNS),TGI (SNB-19 CNS),GI50 (TK-10 renal),TGI (TK-10 renal)
Cc1ccc(Cl)cc1Nc1nc(C(F)(F)F)ccc1C(=O)N1CCN(c2cccc(Cl)c2)CC1,17.8 µM,> 100 µM,> 100 µM,> 100 µM,39.2 µM,> 100 µM,> 100 µM,> 100 µM,> 100 µM,> 100 µM,> 100 µM,> 100 µM,> 100 µM,> 100 µM,> 100 µM,> 100 µM,> 100 µM,> 100 µM,> 100 µM,> 100 µM
O=c1c2ccccc2sc2cccc(NCCCN3CCN(CCCNc4cccc5sc6ccccc6c(=O)c45)CC3)c12,,> 100 µM,,> 100 µM,,> 100 µM,,> 100 µM,,> 100 µM,,> 100 µM,,> 100 µM,,> 100 µM,,> 100 µM,,> 100 µM
COc1ccc2[nH]cc(-c3nc(-c4c[nH]c5ncccc45)cs3)c2c1,67.3 µM,> 100 µM,,,5.46 µM,> 100 µM,2.83 µM,> 100 µM,2.99 µM,> 100 µM,4.95 µM,> 100 µM,5.87 µM,> 100 µM,> 100 µM,> 100 µM,,,5.47 µM,> 100 µM
COc1cc(CNCCCN2C(=O)c3ccc4c5c(ccc(c35)C2=O)C(=O)N(CCCNCc2cc(OC)c(OC)c(OC)c2)C4=O)cc(OC)c1OC,0.363 µM,0.915 µM,0.163 µM,0.933 µM,0.24 µM,1.06 µM,0.14 µM,0.525 µM,0.841 µM,1.6 µM,0.334 µM,1.02 µM,0.367 µM,1.11 µM,0.801 µM,2.79 µM,0.398 µM,1.25 µM,0.416 µM,1.32 µM
COc1cc(-c2nn(-c3cccc(NC(=O)Nc4ccc(Cl)c(Cl)c4)c3)cc2-c2ccncc2)ccc1Cl,1.56 µM,6.2 µM,1.24 µM,6.46 µM,1.18 µM,3.48 µM,0.953 µM,2.62 µM,0.911 µM,2.69 µM,0.926 µM,2.42 µM,0.938 µM,2.39 µM,2.13 µM,> 50 µM,1.72 µM,> 50 µM,1.43 µM,40.9 µM
CC(=O)OC12c3ccccc3-c3ccccc3C1C1C(=O)N(C)C(=O)C12Cl (centres undefined),,> 10 µM,,> 10 µM,,> 10 µM,,> 10 µM,,> 10 µM,,> 10 µM,,> 10 µM,,> 10 µM,,> 10 µM,,> 10 µM
COC1C(O)=C2C(=O)O/C(C)=C/C=C/C=C/C=C\CC(c3ccccc3)NC(=O)\C=C/C=C\C=C\C=C\[C@@]2(C)[C@@H]1O (some centres undefined),,0.586 µM,,0.0531 µM,,0.287 µM,,1.09 µM,,0.35 µM,,0.329 µM,,0.044 µM,,0.413 µM,,0.141 µM,,0.272 µM
Cc1[nH]c2ccccc2c1-c1cc(-c2cc(-c3c(C)[nH]c4ccccc34)on2)no1,,> 100 µM,,> 100 µM,,> 100 µM,,> 100 µM,,> 100 µM,,> 100 µM,,80.6 µM,,> 100 µM,,> 100 µM,,> 100 µM
COc1cccc2c1C(=O)c1c(O)c3c(c(O)c1C2=O)CC(O)(/C(C)=N/NC(=O)CCC(=O)N/N=C(\C)C1(O)Cc2c(O)c4c(c(O)c2C(OC2CC(N)C(O)C(C)O2)C1)C(=O)c1c(OC)cccc1C4=O)CC3OC1CC(N)C(O)C(C)O1 (centres undefined),0.508 µM,1.46 µM,0.333 µM,> 10.5 µM,0.108 µM,1.08 µM,0.126 µM,1.05 µM,0.292 µM,2.12 µM,0.285 µM,1.12 µM,0.552 µM,3.29 µM,1.02 µM,3.68 µM,0.198 µM,1.38 µM,0.574 µM,6.69 µM
NS(=O)(=O)c1ccc(N(/C=C/C(=O)C(F)(F)F)CC(=O)c2ccc(Cl)cc2)cc1,55.7 µM,> 100 µM,35.6 µM,> 100 µM,22.5 µM,81.7 µM,31.2 µM,98.9 µM,,,24.9 µM,92.6 µM,> 100 µM,> 100 µM,57 µM,> 100 µM,51.2 µM,> 100 µM,29.7 µM,87.8 µM
COc1ccncc1C#Cc1cncc(C(=O)Nc2ccc(CN3CCN(C)CC3)c(C(F)(F)F)c2)c1,24.8 µM,> 100 µM,9.33 µM,> 100 µM,8.57 µM,84.2 µM,5.79 µM,25.7 µM,10.1 µM,39.6 µM,4.3 µM,23.3 µM,15 µM,> 100 µM,23 µM,> 100 µM,47 µM,> 100 µM,47.1 µM,> 100 µM
Cc1ccc(/C=C/c2c(C(=O)/C=C/c3ccc(C(F)(F)F)cc3)c(C)nc3ccccc23)cc1,1.48 µM,2.81 µM,0.674 µM,4.57 µM,0.6 µM,2.02 µM,1.12 µM,2.33 µM,,,1.7 µM,3.08 µM,1.49 µM,2.89 µM,1.84 µM,4.25 µM,1.55 µM,2.88 µM,2.36 µM,3.9 µM
CCN1CCN=c2c3cc(OC)ccc3n3cnc4ccc1c2c43,,0.94 µM,,1.01 µM,,7.62 µM,,0.776 µM,,1.04 µM,,1.1 µM,,1.31 µM,,0.929 µM,,1.95 µM,,6.66 µM
CC(=O)c1cc2c(o1)C(=O)c1ccccc1C2=O,0.46 µM and 0.261 µM,0.993 µM and 0.689 µM,0.226 µM and 0.276 µM,0.529 µM and 0.756 µM,0.644 µM and 0.409 µM,1.63 µM and 1.56 µM,0.121 µM and 0.187 µM,0.323 µM and 0.438 µM,0.169 µM and 0.183 µM,0.322 µM and 0.345 µM,0.18 µM and 0.143 µM,0.332 µM and 0.281 µM,0.089 µM and 0.181 µM,0.238 µM and 0.33 µM,0.181 µM and 0.186 µM,0.346 µM and 0.345 µM,0.222 µM and 0.267 µM,0.508 µM and 0.795 µM,0.248 µM and 1.4 µM,0.595 µM and 2.9 µM
Nc1nccc2c1ccn2-c1ccc(NC(=O)c2ccc(N3CCOCC3)c(C(F)(F)F)c2)cc1,2.98 µM,29.1 µM,0.322 µM,1.26 µM,1.56 µM,30.4 µM,0.331 µM,1.48 µM,0.622 µM,2.54 µM,1.58 µM,6.71 µM,0.69 µM,2.99 µM,1.64 µM,20.6 µM,0.61 µM,8.13 µM,1.52 µM,9.75 µM
Nc1nc(N)c(N=Nc2ccc([As](=O)(O)O)cc2)c(=O)[nH]1,,> 100 µM,,> 100 µM,,> 100 µM,,> 100 µM,,> 100 µM,,> 100 µM,,> 100 µM,,> 100 µM,,> 100 µM,,> 100 µM
C=CCc1cccc(/C=N/NC(=O)CN2CCN(Cc3ccccc3)CC2)c1O,2.74 µM,17.1 µM,3.24 µM,13.7 µM,0.483 µM,3.13 µM,1.05 µM,6.59 µM,1.84 µM,13.3 µM,5.79 µM,19.8 µM,2.86 µM,13.3 µM,4.46 µM,18.1 µM,5.36 µM,20.1 µM,0.925 µM,15.1 µM
N#Cc1c(-c2ccc(F)cc2)c(-c2ccc(F)cc2)nn(CCO)c1=O,,28.4 µM,,> 22.9 µM,,> 87.4 µM,,> 47.6 µM,,> 100 µM,,> 100 µM,,0.608 µM,,> 100 µM,,> 100 µM,,> 100 µM
O=C(c1ccc(Cl)cc1)c1cnc(Nc2ccccc2Cl)s1,,> 87.8 µM,,> 100 µM,,74.2 µM,,> 100 µM,,> 31.6 µM,,46.7 µM,,> 100 µM,,95.5 µM,,51.3 µM,,34.9 µM
O=C(CC(O)(C(F)(F)F)C(F)(F)F)c1cc(CC(=O)C(O)(C(F)(F)F)C(F)(F)F)cc(CC(=O)C(O)(C(F)(F)F)C(F)(F)F)c1,,4.19 µM,,4.28 µM,,4.15 µM,,2.81 µM,,> 9.09 µM,,6.33 µM,,> 4.25 µM,,> 9.25 µM,,> 10 µM,,8.36 µM
C[C@H]1Oc2cc(cnc2N)-c2c(nn(C)c2C#N)CN(C)C(=O)c2ccc(F)cc21,> 89 µM,> 100 µM,5.76 µM,> 100 µM,28.1 µM,> 100 µM,40.5 µM,> 100 µM,48.9 µM,> 100 µM,18.8 µM,> 100 µM,48.6 µM,> 100 µM,5.24 µM,> 100 µM,> 100 µM,> 100 µM,36.5 µM,> 100 µM
O=C(c1ccc(F)c(F)c1Nc1ccc(I)cc1F)N1CC(O)([C@@H]2CCCCN2)C1,< 0.015 µM and 0.0194 µM,0.86 µM and 0.952 µM,< 0.01 µM and 0.00367 µM,11 µM and > 10 µM,< 0.0461 µM and 0.125 µM,13.8 µM and > 10 µM,0.0321 µM and 0.0191 µM,2.15 µM and 1.7 µM,< 0.01 µM and 0.00283 µM,0.205 µM and 0.0436 µM,< 0.01 µM and 0.00181 µM,0.0133 µM,< 0.01 µM and 0.00943 µM,15.1 µM and > 10 µM,< 0.0277 µM and 0.0403 µM,15.1 µM and > 10 µM,1.59 µM and 0.56 µM,21.1 µM and > 10 µM,0.271 µM,14.8 µM and > 10 µM
O=c1cc(-c2ccccc2)[nH]c2c(S)cccc12,,> 100 µM,,> 100 µM,,> 100 µM,,,,> 100 µM,,> 100 µM,,> 100 µM,,> 100 µM,,> 100 µM,,> 100 µM
COc1ccc(-c2oc(=O)ccc2-c2cc(OC)c(OC)c(OC)c2)cc1F,33.4 µM,> 100 µM,4.93 µM,> 100 µM,,,10.9 µM,> 100 µM,14.1 µM,> 100 µM,3.24 µM,> 100 µM,2.13 µM,6.66 µM,35.6 µM,> 100 µM,53.2 µM,> 100 µM,39.4 µM,> 100 µM
Cc1ccc(-c2nc3ccc([N+](=O)[O-])cc3[nH]2)cc1,,> 100 µM,,> 100 µM,,> 100 µM,,> 100 µM,,> 100 µM,,> 100 µM,,> 100 µM,,,,> 100 µM,,> 100 µM
Cc1csc(Nc2nc(-c3cccc(Br)c3)nc(C(Cl)(Cl)Cl)n2)n1,1.63 µM,3.57 µM,0.56 µM,> 100 µM,> 100 µM,> 100 µM,> 100 µM,> 100 µM,> 100 µM,> 100 µM,> 100 µM,> 100 µM,6.07 µM,> 100 µM,5.2 µM,> 100 µM,2.87 µM,> 100 µM,2.25 µM,> 100 µM
Nc1c(C(=O)Nc2cccc(Br)c2)sc2nc3c(cc12)C(=O)CCC3,1.46 µM,> 53.2 µM,0.37 µM,> 100 µM,1.73 µM,> 100 µM,,,0.568 µM,> 100 µM,0.579 µM,> 100 µM,0.0915 µM,0.348 µM,6.82 µM,> 100 µM,7.34 µM,> 100 µM,13.9 µM,> 100 µM
CCN(CC)CCOc1ccc(/C=C2\CC3C4CC=C5C[C@@H](O)CC[C@]5(C)C4CC[C@]3(C)C2=O)cc1OC (some centres undefined),8.43 µM,21.6 µM,2.29 µM,> 100 µM,2.94 µM,7.72 µM,,,2.06 µM,4.34 µM,2.01 µM,12.3 µM,1.94 µM,3.74 µM,5.53 µM,20.3 µM,4.67 µM,> 64 µM,9.94 µM,21.5 µM
